Data set [1] deals with L. monocytogenes EGD. The data set can be described thus: Two-stage radial diffusion assay. It is filed as cell-based, Listeria monocytogenes. The protocol:
(§1) FIG. 4. Effect of salt on antibacterial activity of circular minidefensins. Human retrocyclin and monkey RTD-1 were tested against our standard lab stains: E. coli ML-35p, P. aeruginosa MR 3007, L. monocytogenes EGD, and S. aureus 930918. The bars show MIC values±SEM values that resulted from 3-6 radial diffusion assays per organism and assay condition.
(§2) The effects of NaCl on the antimicrobial activity of retrocyclin and RTD-1, from two-stage radial diffusion assays, are compared in FIG. 4.

For data set [2], the system named is HIV-1 strain IIIB. Briefly: HIV-1 IIIB infection of H9 cells, p24 antigen ELISA. The following applies: H9 cells, IIIB (X4), peptide 10-20 μg/ml. The format is cell-based. On the procedure: FIG. 1. Circular minidefensins reduce HIV-1 infection of H9 cells. HIV-I strain IIIB (MOI=10^−2) was incubated with 2.5×10^5 H9 cells in the presence or absence of 20 μg/ml RTD-1, RTD-2 or RTD-3. p24 antigen release was monitored by ELISA on days 3, 6, and 9. Assay sensitivity=10 pg/ml.
Immortalized CD4^+ H9 cells, which are permissive for infection with this strain, were maintained in RPMI supplemented with 10% heat-inactivated fetal calf serum (FCS), 10 mM HEPES, 2 mM glutamine, 100 U of penicillin/ml, and 10 μg of streptomycin/ml (R10 media). Cells (2.5×10^5/100 μl) were incubated with virus (multiplicity of infection (MOI)=10^−2) in the presence or absence of 20 μg/ml RTD-1, RTD-2 or RTD-3 for 3 hrs at 37° C./5% CO2. The cells were washed in R10 media, seeded in 48-well tissue culture plates in 1 ml R10 media, and incubated at 37° C./5% CO2 for 9 days. Aliquots of cell supernatant were removed at the specified time points and analyzed by a sensitive ELISA (DuPont NEN) that quantitates p24 antigen of HIV-1. The three circular rhesus minidefensins were similarly active, inhibiting HIV-1 by 100-1000 fold by 9 days post-inoculation (note the logarithmic scale).
(§3) Either HIV-1-permissive H9 cells were used as targets, or primary CD4^+ lymphocytes from HIV-1-seronegative donors generated from freshly purified peripheral blood mononuclear cells (PBMC) stimulated with a CD3-CD8 bispecific monoclonal antibody. After approximately 7 days, when 98% of these cells co-expressed CD3 and CD4, they were infected with HIV-1 with or without retrocyclin or other test peptide. These cells were maintained in RPMI containing 10% FCS supplemented with 2 mM glutamine, 100 U of penicillin/ml, 10 μg of streptomycin/ml, and 50 U of interleukin 2/ml (R10-50 media).
Mature retrocyclin was prepared by a three-step process.

The test system of data set [3] is E. coli ML-35p. Briefly: Two-stage radial diffusion assay. The format is cell-based, Escherichia coli. On the procedure:
as §1, §2

Data set [4] in a line: MTT cytotoxicity assay. The format is cell-based, human. The following applies: human, H9 cells. The protocol:
FIG. 8. Cytotoxicity of antimicrobial peptides against H9 cells. Retrocyclin, RTD-1 and PG-1 (a porcine-derived peptide with anti-HIV-1 activity) were tested for cytotoxicity using an MTT assay for cell proliferation. Note that the EC50 of Retrocyclin and RTD-1 were >100 μg/ml, concentrations well above their antiviral concentration.
Retrocyclin is not cytotoxic. […] Retrocyclin was not hemolytic for human erythrocytes.
On the technique in general: Formazan colour is commonly taken as a measure of viable cells.

The subject of data set [5] is HIV-1 strain IIIB. Briefly: HIV-1 IIIB infection of CD4+ PBMC, p24 antigen ELISA. It is filed as cell-based. The following applies: CD4+ PBMC, IIIB (X4), peptide 10-20 μg/ml. The protocol:
FIG. 5A-C. Anti-HIV-1 activity of retrocyclin. Two strains of HIV-1 and two types of human target cells were used. The IIIB strain is T-cell tropic (X4) and utilizes the CXCR4 co-receptor for entry; the JR-CSF strain is M-tropic (R5) and uses CCR5 for entry. PBMC signifies CD4^+-selected peripheral blood mononuclear cells. […] (A) Two concentrations of retrocyclin (2 μg/ml, 20 μg/ml), 20 μg/ml of the Rhesus circular defensin “RTD-1”, and 20 μg/ml of a horseshoe crab-derived peptide “T140”, reported to only prevent X4 infections, were tested in antiviral assays of against strain IIIB in H9 cells (n=2-6 per peptide; error bars indicate SEM). (B) To confirm our results with primary human cells, similar assays were performed utilizing IIIB virus and CD4^+ PBMC or (C) JR-CSF virus and CD4^+ PBMC. […] Average of duplicate experiments are reported for studies with PBMCs. Assay sensitivity=10 pg/ml.
Either HIV-1-permissive H9 cells were used as targets, or primary CD4^+ lymphocytes from HIV-1-seronegative donors generated from freshly purified peripheral blood mononuclear cells (PBMC) stimulated with a CD3-CD8 bispecific monoclonal antibody. […] These cells were maintained in RPMI containing 10% FCS supplemented with 2 mM glutamine, 100 U of penicillin/ml, 10 μg of streptomycin/ml, and 50 U of interleukin 2/ml (R10-50 media).
Examining the effect of adding retrocyclin at various times pre- and post-HIV-1 infection. […] Primary CD4^+ PBMC were incubated with HIV-IIIB (FIG. 6) or HIV-JR-CSF for 3 hours in the presence or absence of 20 μg/ml retrocyclin. The cells were subsequently washed in media, and incubated an additional 9 days. Retrocyclin (20 μg/ml) was added back to some of the cultures at time points specified in FIG. 6 and infection was monitored by p24 ELISA as previously described. […]

Data set [6] deals with HSV-2. Briefly: HSV inactivation microplate assay on ME-180 cells (MTT). The format is cell-based. Particulars: 2-50 μg/ml, 2 hrs with virus, 72 hrs culture. On the procedure: FIG. 14. Inactivation of HSV-1 and HSV-2 by retrocyclin and RC-101. Retrocyclin (left panel) and RC-101 (right panel) at the indicated concentrations were incubated with herpes simplex virus, type 1 (HSV-1) or HSV-2 for 2 hrs and then added to ME-180 cell monolayers. Cells were incubated at 37° C. for 72 hrs, and cytotoxicity was measured with an MTT kit.
Some retrocyclins are slightly active against herpes simplex virus (HSV). To determine if the activity of retrocyclin against HIV-1 was specific or representative of a more global antiviral effect, it was tested its ability to prevent HSV infection in vitro. A quantitative microplate assay was used to screen retrocyclin and retrocyclin-congeners for their ability to inactivate HSV type 1 (HSV-1) and HSV-2. The assay utilized small amounts of peptide and simultaneously evaluated for peptide-induced cytotoxicity. In brief, final peptide concentrations of 2-50 μg/ml were incubated with virus stocks for 2 hrs and added directly to ME-180 human cervical carcinoma cells. Cultures were incubated at 37° C. for 72 hrs and cytotoxicity was measured using a 3-(4,5-dimethylthiazon-2-yl)-2,5-diphenyltetrazolium bromide (MTT) cell proliferation kit (Boehringer-Mannheim, Germany). Calculations to assess antiviral activity and compute “percent protection” are delineated in (90).

The test system of data set [7] is HIV-1 strain JR-CSF. Briefly: HIV-1 JR-CSF infection of CD4+ PBMC, p24 antigen ELISA. The format is cell-based. Particulars: JR-CSF (R5), peptide 10-20 μg/ml. The protocol:
FIG. 5A-C. Anti-HIV-1 activity of retrocyclin. Two strains of HIV-1 and two types of human target cells were used. The IIIB strain is T-cell tropic (X4) and utilizes the CXCR4 co-receptor for entry; the JR-CSF strain is M-tropic (R5) and uses CCR5 for entry. PBMC signifies CD4^+-selected peripheral blood mononuclear cells. […] (A) Two concentrations of retrocyclin (2 μg/ml, 20 μg/ml), 20 μg/ml of the Rhesus circular defensin “RTD-1”, and 20 μg/ml of a horseshoe crab-derived peptide “T140”, reported to only prevent X4 infections, were tested in antiviral assays of against strain IIIB in H9 cells (n=2-6 per peptide; error bars indicate SEM). (B) To confirm our results with primary human cells, similar assays were performed utilizing IIIB virus and CD4^+ PBMC or (C) JR-CSF virus and CD4^+ PBMC. Peptides were not cytotoxic at indicated concentrations, measured by trypan blue exclusion. Average of duplicate experiments are reported for studies with PBMCs. Assay sensitivity=10 pg/ml.
as §3
The p24 assay results shown in FIG. 9 are on a logarithmic scale. A horizontal reference line that passes through 100 on the ordinate scale corresponds to […] of p24 antigen. Results from 3 experiments (each performed with PBMC from a different donor) are shown.

In data set [8] the test system is HIV-1 IIIB. Briefly: Activity of theta-defensins against HIV-1 IIIB (FIG. 21). It is filed as cell-based. The text has this:
(§4) FIG. 21A-21B. Activity of theta-defensins against HIV-1 BAL; and HIV-1 IIIB.
(§5) The data shown in FIGS. 21A and 21B illustrate the activity of these retrocyclin-related peptides against two different strains of HIV-1, BAL and IIIB. […] BAL and IIIB are widely studied, laboratory adapted strains of HIV.

The test system of data set [9] is HIV-1 BAL. The data set can be described thus: Activity of theta-defensins against HIV-1 BAL (FIG. 21). It is filed as cell-based.
From the text: as §4, §5

The subject of data set [10] is HIV-1. Particulars: cited from earlier work.

Entries after “also recorded” stand apart in the source; their conditions may differ. Where a SMILES comes first, the peptide text is derived from it. Bridges are numbered along the chain shown (N, C = ends). Bounds are passed on as bounds.

Take `CC[C@H](C)[C@@H]1NC(=O)[C@@H]2CSSC[C@H](NC(=O)[C@H](CCCNC(=N)N)NC(=O)[C@@H]3CSSC[C@H](NC1=O)C(=O)N[C@@H]([C@@H](C)O)C(=O)N[C@@H](CCCNC(=N)N)C(=O)NCC(=O)N[C@@H](Cc1ccccc1)C(=O)N3)C(=O)N[C@@H](CC(C)C)C(=O)N[C@H]1CSSC[C@H](NC(=O)[C@H](C(C)C)NC(=O)CNC(=O)[C@H](CCCNC(=N)N)NC(=O)[C@H](CCCNC(=N)N)NC1=O)C(=O)N[C@@H](CCCNC(=N)N)C(=O)N2` [RTD-1, reference compound] (cyclo(GFCRCLCRRGVCRCICTR); disulfide 3-16, 5-14, 7-12): the “effect of salt on antimicrobial activity” value in data set [1] (hypersalinity (175 mM NaCl)) and in data set [3] (hypersalinity (175 mM NaCl)) was “only modestly inhibitory” each time. Moreover, the antimicrobial activity entry in data set [1] (physiological (100 mM) NaCl) and in data set [3] (physiological (100 mM) NaCl) was “strong activity” in each case. Also, in data set [2], the “inhibition of HIV-1 replication (p24)” value was “protective to a lesser extent than retrocyclin”. Also, the EC50 in [4] is above 100 µg/mL.
Take “I15Y-Retrocyclin (cyclo(GICRCICGRGICRCYCGR); disulfide (positions not given here); ring closure inferred; not fully specified (bridges)) [RC-103]”: the entries for the “inhibition of HIV-1 replication (p24)” value in [5] and in data set [7] were “either inactive or only modestly active; also recorded: relatively ineffective” and “considerable ability to protect cells; also recorded: substantial activity”, respectively. In data set [6], the “protection against HSV-2” value was “less antiviral than retrocyclin”.
On to “Orang-2: cyclic GVCRC ICGRG VCRCI CRR (SEQ ID NO:134) (cyclo(GVCRCICGRGVCRCICRR); disulfide (positions not given here); ring closure inferred; not fully specified (bridges))”, for which the “potency against HIV-1 IIIB” value in [8] was “more potent than retrocyclins 1 and 2 and RC101”. In data set [9], the “potency against HIV-1 BAL” value is “more potent than retrocyclins 1 and 2 and RC101”.
On to indolicidin, for which, in data set [10], the “concentration reproducibly virucidal against HIV-1” value is 333 µg/mL.

Usually EC50 stands for the concentration at which the effect is half-maximal. Read a high EC50 as a less potent agent.

These data come from US7314858B2, “Retrocyclins: antiviral and antimicrobial peptides” (priority 2001, dated 2008).
